Measured values published in article PMC7714071, “Interaction of amyloid beta with humanin and acetylcholinesterase is modulated by ATP” (FEBS Open Bio, 2020).

Assays:
A549 cells = assay: MTT cell viability, A549; type: cell-based, human; conditions: 48 h, Fig. 7A; for effect of ATP on viability in HN-ID media: HN-immunodepleted media, versus no ATP; for effect on cell viability: control media, three experiments in triplicate
Method: Human NSCLC cell lines, A549 (ATCC CCL‐185) and H1299 (ATCC CRL‐5803), were purchased from the American Type Culture Collection (ATCC, Manassas, VA, USA). Cells were seeded as we reported earlier in 5 mL HyClone Dulbecco's modified Eagle's medium/nutrient mixture F‐12 (DMEM/F12) (GE Healthcare Life Sciences, Pittsburgh, PA, USA), supplemented with 10% Fetalgro bovine growth serum (FBS; RMBIO, Missoula, MT, USA), 50 U·mL^−1 penicillin, and […] streptomycin (Invitrogen, Life Technologies, Carlsbad, CA, USA) in 25‐cm^2 tissue culture flasks, and allowed to grow overnight in an incubator at 37 °C, 95% humidity, and 5% CO2. The cells were counted after trypan blue staining, with a hemocytometer.
The 3‐(4,5‐dimethylthiazol‐2‐yl)‐2,5‐diphenyl‐tetrazolium bromide (MTT) reduction assay (Sigma‐Aldrich), used to measure cell viability, was carried out as we reported earlier. Cells were seeded in 96‐well plates as indicated in 200 μL 10% FBS‐supplemented media per well and maintained overnight at 95% humidity and 5% CO2. After an overnight incubation, the media were replaced with 200 μL serum‐free media, and the cells were further incubated, without or with different treatments, for 24, 48, or 72 h. The final concentration of DMSO in each well never exceeded 0.1%. The cells were then incubated for 4 h with MTT (0.5 mg·mL^−1) in the dark. The media were carefully removed, and DMSO (100 μL) was added to dissolve the formazan crystals. The absorbance was measured at 570 nm in a plate reader. Untreated cells or wells containing only DMSO and media were used as a positive and negative control, respectively. Statistical analysis was conducted using […] PRISM version 8.4.3 for Windows. Significant values were considered at P < 0.05 and more significant values at P < 0.01, compared with the control.
Conditioned media were immunodepleted (ID) according to the methods previously described and our recently published report. Briefly, specific antibodies were bound to ELISA wells overnight (1 : 1000 dilution). The wells were then blocked and washed, then 300 μL of the conditioned medium (0.5 μg·μL^−1) treated as indicated, 72 h postserum starvation, was incubated with the antibodies bound to ELISA wells for 24 h. The ID media were then carefully removed and analyzed for the presence of the target protein or peptide by ELISA. The same amount of protein (3 µL of 600 µg·mL^−1 total protein) of each sample was analyzed in the experiments. Significant depletion (95–100%) was observed upon using each of the antibodies employed in this study.
Since addition of ATP appears to increase binding of HN to Aβ, and conversely, decreases the interaction of Aβ with AChE (Figs 3, 4, 5, 6), we tested the effect of added ATP on A549 and H1299 cell viability (Fig. 7). Exogenously added ATP at either 100 µM or 1 mM had no effect on viability of either A549 (Fig. 7A) or H1299 cells (Fig. 7B). […] To determine the effect of ID of AChE or HN in the absence or presence of added ATP on cell viability, ID media were prepared by first seeding 0.2 × 10^5 cells per well in 96‐well plates in 10% FBS‐supplemented media. The next day, the cells were incubated in serum‐free medium for 72 h, then ID of AChE or HN as described in Materials and methods. For cell viability assays, cells were seeded in 96‐well plates at 0.2 × 10^5 cells per well in 200 µL 10% FBS‐supplemented media followed by incubation in serum‐free medium for 12 h, then treated with the ID media for 48 h. […]

H1299 cells = conditions: cited from earlier work

Compound | effect of ATP on viability in AChE-depleted media (A549 cells; AChE-immunodepleted media) | effect of ATP on viability in HN-ID media (A549 cells; ATP 100 µM) | effect on cell viability (A549 cells; ATP 100 µM) | effect of ATP on viability in HN-ID media (A549 cells; ATP 1 mM) | effect on cell viability (A549 cells; ATP 1 mM) | cell viability upon ID of HN (H1299 cells; HN immunodepleted from H1299 conditioned media) | apoptosis upon ID of HN (H1299 cells; HN-ID H1299 media)
Nc1ncnc2c1ncn2[C@@H]1O[C@H](COP(=O)(O)OP(=O)(O)OP(=O)(O)O)[C@@H](O)[C@H]1O [ATP, Adenosine triphosphate] | did not affect cell viability | No change in cell viability | no effect | No change in cell viability | no effect | – | –
Humanin [HN] | – | – | – | – | – | diminished cell viability | increased apoptosis
